# Measurements reported in patent publication US12295936B2, “Immunomodulating urea azalides” (Zoetis Services LLC, priority 2020, dated 2025).
# Like-named read-outs stand apart in the source and are kept apart here.
# How the values were obtained:
# [1] = tested on: IL-6; assay: Plasma IL-6 biomarker in bovine M. haemolytica challenge; conditions: bovine, in vivo
# [2] = tested on: M. haemolytica; assay: In-vitro MIC model (CLSI broth micro-dilution); conditions: Mannheimia haemolytica
# [3] = tested on: P. multocida; assay: In-vitro MIC model (CLSI broth micro-dilution); conditions: Pasteurella multocida, ATCC43137, read-out: Comparative MIC's, P. multocida ATCC 43137
# [4] = tested on: E. coli; assay: In-vitro MIC model (CLSI broth micro-dilution); conditions: Escherichia coli, ATCC25922, read-out: Comparative MIC's, E. coli ATCC 25922
# [5] = tested on: P. multocida; assay: Murine P. multocida intranasal challenge study with lung tissue RNA sequence analysis; format: in vivo, mice; conditions: subcutaneous 18 hours after challenge (5×10^3 CFU/mouse): tulathromycin 16 mg/kg, M9 32 mg/kg, ceftiofur 9 mg/kg; placebo 0%
# Method: In one murine P. multocida intranasal challenge study, mice were administered tulathromycin (16 mg/kg; T02), M9 (32 mg/kg; T03), or ceftiofur (9 mg/kg; T04) by subcutaneous injection 18 hours after bacterial challenge (5×10^3 CFU/mouse) for lung tissue RNA sequence analysis. Survival at Day 7 was about 80%, 50%, and 90% for T02, T03, and T04, respectively, compared to placebo at 0%. Differential gene expression from total lung tissue RNA sequence analysis indicated at least 226 unique genes were up or down regulated (with significance) for T03. Output from ingenuity pathway analysis of these unique genes predicted major upstream regulators of the involved pathways. Data was analyzed based on the number of genes being modulated in the same direction that were associated with a given upstream regulator. An activation z-score of 2 or greater is considered significant and the direction change is indicated by +(activated) or − (inhibited). The top 5 pathways included: IL-9 signaling, glucocorticoid receptor signaling, prolactin signaling, JAK STAT signaling, and IL-17 signaling. The top 6 upstream regulators (activation z-score) included: lipopolysaccharide (−6.725), TNF (−4.669), IFNG (−5.759), IL-1β (−5.947), STAT1 (−2.787), and poly rl:rC-RNA (−5.289). Even though this study was run in the murine model, the top upstream regulators identified as being modulated by M9 include an almost ubiquitous overlap with the pathways identified in the natural disease study as being key mediators in BRD, and therefore is modulating highly relevant pathways in BRD pathobiology.
structure (smiles),measurement,setting,value
"CCCNC[C@]1(O)[C@H](C)O[C@@H](O[C@H]2[C@H](C)[C@@H](O[C@@H]3O[C@H](C)C[C@H](N(C)C)[C@H]3O)[C@](C)(O)C[C@@H](C)CN[C@H](C)[C@@H](O)[C@](C)(O)[C@@H](CC)OC(=O)[C@@H]2C)C[C@@]1(C)OC [Tulathromycin, (2R,3S,4R,5R,8R,10R,11R,12S,13S,14R)-11-(((2S,3R,4S,6R)-4-(dimethylamino)-3-hydroxy-6-methyltetrahydro-2H-pyran-2-yl)oxy)-2-ethyl-3,4,10-trihydroxy-13-(((2R,4R,5S,6S)-5-hydroxy-4-methoxy-4,6-dimethyl-5-((propylamino)methyl)tetrahydro-2H-pyran-2-yl)oxy)-3,5,8,10,12,14-hexamethyl-1-oxa-6-azacyclopentadecan-15-one]",IL-6 levels (plasma) in bovine M. haemolytica challenge,[1],significantly reduced
same,MIC,"[2]; ATCC33396, read-out: Comparative MIC's, M. haemolytica ATCC 33396",1 µg/mL
same,MIC,"[2]; read-out: Comparative MIC's, M. haemolytica 12726",2 µg/mL
same,MIC,"[2]; read-out: Comparative MIC's, M. haemolytica 46571*",1 µg/mL
same,MIC,[3],1 µg/mL
same,MIC,[4],2 µg/mL
same,Survival at Day 7,[5],about 80%
